Like-named read-outs stand apart in the source and are kept apart here.
Key:
[1] = tested on: D545701-14 multi protease inhibitor resistant virus; assay: Anti-viral activity against resistant virus D545701-14 in MT4 cells; format: cell-based, HIV-1
HIV-1 (strain IIIB) = assay: Antiviral activity assay in MT4 cells (propidium iodide based); format: cell-based; details: wild type HIV-1 virus, MT4 cells, read-out: Wildtype virus - IC50
Summary of the method: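 MT4 cells infected with HIV-1 IIIB (MOI 100×TCID50, 1 hr, 37°C), diluted 6-fold into wells with serially diluted compound, incubated 5 days. Cells lysed with Nonidet-40; DNA content per well estimated by propidium iodide staining as the viability read-out, with mock-infected controls.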

[2] = tested on: EP13 multi protease inhibitor resistant virus; assay: Anti-viral activity against resistant virus EP13 in MT4 cells; format: cell-based, HIV-1
Summary of the method: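 MT4 cells infected for 1 h at 37 °C, MOI 100×TCID50, then diluted 6-fold onto pre-diluted compound and cultured 5 days (5% CO2). Viable-cell DNA content estimated by propidium iodide. EP13 carries protease mutations M46I, L63P, A71V, V82F/L, I84V, no RT mutations.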

[3] = Human immunodeficiency virus 1, MT4, read-out: D545701-14 mutant - IC50, D545701-14 multi protease inhibitor resistant virus, MT4 cells
[4] = Human immunodeficiency virus 1, IIIB
[5] = Human immunodeficiency virus 1, MT4, read-out: EP13 mutant IC50, EP13 multi protease inhibitor resistant virus, MT4 cells
[6] = Human immunodeficiency virus 1, MT4, read-out: D545701-14 mutant - IC50
[7] = Human immunodeficiency virus 1, MT4, read-out: EP13 mutant IC50
[8] = D545701-14 multi protease inhibitor resistant virus, MT4 cells, read-out: D545701-14 mutant - IC50
[9] = EP13 multi protease inhibitor resistant virus, MT4 cells, read-out: EP13 mutant IC50

Structure (SMILES) | IC50 [1, 3] [nM] | IC50 (HIV-1 (strain IIIB); [4]) [nM] | IC50 [2, 5] [nM] | IC50 [1, 6] [nM] | IC50 [2, 7] [nM] | IC50 [1, 8] [nM] | IC50 (HIV-1 (strain IIIB)) [nM] | IC50 [2, 9] [nM]
CC(C)CN(C[C@@H](O)[C@H](Cc1ccc(OCc2cccc(C#N)c2)cc1)NC(=O)O[C@H]1CO[C@H]2OCC[C@H]21)S(=O)(=O)c1ccc2c(c1)OCCO2 [Compound 338, (3R,3aS,6aR)-hexahydrofuro[2,3-b]furan-3-yl (1S,2R)-1-{4-[(3-cyanobenzyl)oxy]benzyl}-3-[(2,3-dihydro-1,4-benzodioxin-6-ylsulfonyl)(isobutyl)amino]-2-hydroxypropylcarbamate] | 1 to 10 | 1 to 10 | 1 to 10 |  |  |  |  | 
CC(C)CN(C[C@@H](O)[C@H](Cc1ccc(OCc2cccc(C#N)c2)cc1)NC(=O)O[C@H]1CO[C@H]2OCC[C@H]21)S(=O)(=O)c1ccc2c(c1)OC(F)(F)O2 [Compound 342, (3R,3aS,6aR)-hexahydrofuro[2,3-b]furan-3-yl (1S,2R)-1-{4-[(3-cyanobenzyl)oxy]benzyl}-3-[[(2,2-difluoro-1,3-benzodioxol-5-yl)sulfonyl](isobutyl)amino]-2-hydroxypropylcarbamate] | 10 to 100 | 10 to 100 | 10 to 100 |  |  |  |  | 
CC(=O)Oc1ccc(S(=O)(=O)N(CC(C)C)C[C@@H](O)[C@H](Cc2ccc(OCc3csc(C)n3)cc2)NC(=O)O[C@H]2CO[C@H]3OCC[C@H]32)cc1C [Compound 347, 4-{[((2R,3S)-3-({[(3R,3aS,6aR)-hexahydrofuro[2,3-b]furan-3-yloxy]carbonyl}amino)-2-hydroxy-4-{4-[(2-methyl-1,3-thiazol-4-yl)methoxy]phenyl}butyl)(isobutyl)amino]sulfonyl}-2-methylphenyl acetate] | 1 to 10 | 1 to 10 | 1 to 10 |  |  |  |  | 
Cc1nc(COc2ccc(C[C@H](NC(=O)O[C@H]3CO[C@H]4OCC[C@H]43)[C@H](O)CN(CC(C)C)S(=O)(=O)c3ccc(O)c(C)c3)cc2)cs1 [Compound 348, (3R,3aS,6aR)-hexahydrofuro[2,3-b]furan-3-yl (1S,2R)-2-hydroxy-3-[[(4-hydroxy-3-methylphenyl)sulfonyl](isobutyl)amino]-1-{4-[(2-methyl-1,3-thiazol-4-yl)methoxy]benzyl}propylcarbamate] | 1 to 10 | 1 to 10 | 1 to 10 |  |  |  |  | 
CC(C)CN(C[C@@H](O)[C@H](Cc1ccc(OS(=O)(=O)c2ccc3c(c2)OCO3)cc1)NC(=O)O[C@H]1CO[C@H]2OCC[C@H]21)S(=O)(=O)c1ccc2c(c1)OCO2 [Compound 349, 4-{(2S,3R)-2-({[(3R,3aS,6aR)-hexahydrofuro[2,3-b]furan-3-yloxy]carbonyl}amino)-4-[(1,3-benzodioxol-5-ylsulfonyl)(isobutyl)amino]-3-hydroxybutyl}phenyl 1,3-benzodioxole-5-sulfonate] | 1 to 10 | 1 to 10 | 1 to 10 |  |  |  |  | 
CC(C)CN(C[C@@H](O)[C@H](Cc1ccc(OCCc2ccccc2)cc1)NC(=O)O[C@H]1CO[C@H]2OCC[C@H]21)S(=O)(=O)c1ccc2c(c1)OCO2 [Compound 352, (3R,3aS,6aR)hexahydrofuro[2,3-b]furan-3-yl (1S,2R)-3[(1,3-benzodioxol-5-ylsulfonyl)(isobutyl)amino]-2-hydroxy-1-[4-(phenethyloxy)benzyl]propylcarbamate] | 1 to 10 | < 1 | < 1 |  |  |  |  | 
CC(=O)NCCOc1ccc(C[C@H](NC(=O)O[C@H]2CO[C@H]3OCC[C@H]32)[C@H](O)CN(CC(C)C)S(=O)(=O)c2ccc3c(c2)OCO3)cc1 [Compound 355, (3R,3aS,6aR)hexahydrofuro[2,3-b]furan-3-yl (1S,2R)-3-[(1,3-benzodioxol-5-ylsulfonyl)(isobutyl)amino]-2-hydroxy-1-[4-(2-[acetylamino]ethoxy)benzyl]propylcarbamate] | 10 to 100 | 10 to 100 | 10 to 100 |  |  |  |  | 
COC(=O)NCCOc1ccc(C[C@H](NC(=O)O[C@H]2CO[C@H]3OCC[C@H]32)[C@H](O)CN(CC(C)C)S(=O)(=O)c2ccc3c(c2)OCO3)cc1 [Compound 356, (3R,3aS,6aR)hexahydrofuro[2,3-b]furan-3-yl (1S,2R)-3-[(1,3-benzodioxol-5-ylsulfonyl)(isobutyl)amino]-2-hydroxy-1-[4-(2-[(methoxycarbonyl)amino]ethoxy)benzyl]propylcarbamate] |  | 1 to 10 |  | < 1 | 1 to 10 |  |  | 
CC(C)CN(C[C@@H](O)[C@H](Cc1ccc(OCCNS(C)(=O)=O)cc1)NC(=O)O[C@H]1CO[C@H]2OCC[C@H]21)S(=O)(=O)c1ccc2c(c1)OCO2 [Compound 357, (3R,3aS,6aR)hexahydrofuro[2,3-b]furan-3-yl (1S,2R)-3-[(1,3-benzodioxol-5-ylsulfonyl)(isobutyl)amino]-2-hydroxy-1-[4-(2-[(methylsulfonyl)amino]ethoxy)benzyl]propylcarbamate] |  | 10 to 100 |  | 10 to 100 | 1 to 10 |  |  | 
CNC(=O)NCCOc1ccc(C[C@H](NC(=O)O[C@H]2CO[C@H]3OCC[C@H]32)[C@H](O)CN(CC(C)C)S(=O)(=O)c2ccc3c(c2)OCO3)cc1 [Compound 358, (3R,3aS,6aR)hexahydrofuro[2,3-b]furan-3-yl (1S,2R)-3-[(1,3-benzodioxol-5-ylsulfonyl)(isobutyl)amino]-2-hydroxy-1-[4-(2-[([methylamino]carbonyl)amino]ethoxy)benzyl]propylcarbamate] |  | 10 to 100 |  | 10 to 100 | 10 to 100 |  |  | 
CC(C)CN(C[C@@H](O)[C@H](Cc1ccc(OCCN(C)C)cc1)NC(=O)O[C@H]1CO[C@H]2OCC[C@H]21)S(=O)(=O)c1ccc2c(c1)OCO2 [Compound 359, (3R,3aS,6aR)hexahydrofuro[2,3-b]furan-3-yl (1S,2R)-3-[(1,3-benzodioxol-5-ylsulfonyl)(isobutyl)amino]-2-hydroxy-1-[4-(2-[dimethylamino]ethoxy)benzyl]propylcarbamate] | 10 to 100 | 10 to 100 | 10 to 100 |  |  |  |  | 
CNC(=O)OCCCC(C)(C)CN(C[C@@H](O)[C@H](Cc1ccc(OCc2ccccc2)cc1)NC(=O)OC1CO[C@H]2OCC[C@@H]12)S(=O)(=O)c1ccc2c(c1)OCO2 (stereo partly drawn) [Compound 361] | 10 to 100 | 1 to 10 | 10 to 100 |  |  |  |  | 
CC(C)CN(C[C@@H](O)[C@H](Cc1ccc(OCc2ccccc2)cc1)NC(=O)O[C@H]1CO[C@H]2OCC[C@H]21)S(=O)(=O)c1ccc2c(c1)OCCO2 [Compound 365] | 1 to 10 | 1 to 10 | 1 to 10 |  |  |  |  | 
CC(C)CN(C[C@@H](O)[C@H](Cc1ccc(OCc2cccc(C#N)c2)cc1)NC(=O)O[C@H]1CO[C@H]2OCC[C@H]21)S(=O)(=O)c1ccc2c(c1)OCO2 [Compound 367, (3R,3aS,6aR)-Hexahydrofuro[2,3-b]furan-3-yl-N (1S,2R)-1-[4-(3-cyanobenzyloxy)-benzyl]-3-i-butyl-[(3,4-methylenedioxyphenyl)sulfonyl]-amino-2-hydroxypropyl-carbamate] |  |  |  |  |  | 1 to 10 | < 1 | < 1
Cc1nc(COc2ccc(C[C@H](NC(=O)O[C@H]3CO[C@H]4OCC[C@H]43)[C@H](O)CN(CC(C)C)S(=O)(=O)c3ccc4c(c3)OCO4)cc2)cs1 [Compound 368] |  |  |  |  |  | 1 to 10 | < 1 | < 1
CC(C)CN(C[C@@H](O)[C@H](Cc1ccc(OCc2noc(C(C)(C)C)n2)cc1)NC(=O)O[C@H]1CO[C@H]2OCC[C@H]21)S(=O)(=O)c1ccc2c(c1)OCO2 [Compound 370] | 1 to 10 | < 1 | 1 to 10 |  |  |  |  | 
CC(C)CN(C[C@@H](O)[C@H](Cc1ccc(OCc2ccc3ccccc3c2)cc1)NC(=O)O[C@H]1CO[C@H]2OCC[C@H]21)S(=O)(=O)c1ccc2c(c1)OCO2 [Compound 376, (3R,3aS,6aR)-hexahydrofuro[2,3-b]furan-3-yl (1S,2R)-3-[(1,3-benzodioxol-5-ylsulfonyl)(isobutyl)amino]-2-hydroxy-1-[4-(2-naphthylmethoxy)benzyl]propylcarbamate] | 10 to 100 | 1 to 10 | 10 to 100 |  |  |  |  | 
Cc1cccc(COc2ccc(C[C@H](NC(=O)O[C@H]3CO[C@H]4OCC[C@H]43)[C@H](O)CN(CC(C)C)S(=O)(=O)c3ccc4c(c3)OCO4)cc2)c1 [Compound 377, (3R,3aS,6aR)-hexahydrofuro[2,3-b]furan-3-yl (1S,2R)-3-[(1,3-benzodioxol-5-ylsulfonyl)(isobutyl)amino]-2-hydroxy-1-{4-[(3-methylbenzyl)oxy]benzyl}propylcarbamate] | 10 to 100 | 1 to 10 | 1 to 10 |  |  |  |  | 
CC(C)CN(C[C@@H](O)[C@H](Cc1ccc(OCc2cccc(F)c2)cc1)NC(=O)O[C@H]1CO[C@H]2OCC[C@H]21)S(=O)(=O)c1ccc2c(c1)OCO2 [Compound 378, (3R,3aS,6aR)-hexahydrofuro[2,3-b]furan-3-yl (1S,2R)-3-[(1,3-benzodioxol-5-ylsulfonyl)(isobutyl)amino]-1-{4-[(3-fluorobenzyl)oxy]benzyl}-2-hydroxypropylcarbamate] | 10 to 100 | 1 to 10 | 1 to 10 |  |  |  |  | 
